ChEMBL document CHEMBL1201862, “PubChem BioAssay data set” (2004)
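Test compounds were applied to cells in 96-well plates for 48 hours at 5 doses. Abbreviation: GI50, concentration required for 50% inhibition of growth.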 Calls of active or inactive are those of the source. No stated cut-off is given here; in the data, active = GI50 up to about 1.1 µM and inactive = higher.

Key:
Test in all cases: inhibition of tumour cell growth, NCI panel, 48 h
[1] = system: IGROV-1
[2] = system: UO-31
[3] = system: Malme-3M
[4] = system: HOP-62
[5] = system: TK-10
[6] = system: RXF 393
[7] = system: A498
[8] = system: NCI-H23
[9] = system: SK-MEL-5
[10] = system: U-251
[11] = system: SF-295
[12] = system: CAKI-1
[13] = system: OVCAR-3
[14] = system: ACHN
[15] = system: MOLT-4
[16] = system: HCT-15
[17] = system: SN12C
[18] = system: OVCAR-4

Structure (SMILES) | GI50 [1] | GI50 [2] | GI50 [3] | GI50 [4] | GI50 [5] | GI50 [6] | GI50 [7] | GI50 [8] | GI50 [9] | GI50 [10] | GI50 [11] | GI50 [12] | GI50 [13] | GI50 [14] | GI50 [15] | GI50 [16] [µM] | GI50 [17] | GI50 [18]
CC(=O)NNc1ncc(C(=O)/C=C/c2ccccc2C)s1 | > 100 µM (inactive) | > 100 µM (inactive) | > 100 µM (inactive) | > 100 µM (inactive) | > 100 µM (inactive) | > 100 µM (inactive) | > 100 µM (inactive) | > 100 µM (inactive) | > 100 µM (inactive) | > 100 µM (inactive) | > 100 µM (inactive) | > 100 µM (inactive) | > 100 µM (inactive) | > 100 µM (inactive) | > 100 µM (inactive) |  |  | 
COC1=CC(=O)C2C(C1=O)C(c1ccccc1)[C@H]2C (some centres not stated) | > 100 µM (inactive) | > 100 µM (inactive) | 26.1 µM (inactive) | > 100 µM (inactive) | > 100 µM (inactive) | > 100 µM (inactive) | > 100 µM (inactive) | > 100 µM (inactive) | 80 µM (inactive) | > 100 µM (inactive) | > 100 µM (inactive) |  | 87.1 µM (inactive) | 25.5 µM (inactive) | > 10 µM (inactive) | 18.9 |  | 
O=C(CC1(O)C(=O)Nc2c(Cl)ccc(Cl)c21)c1ccc(Cl)cc1Cl (configuration not stated) | 18.3 µM (inactive) | 20.7 µM (inactive) | 20.4 µM (inactive) | 24 µM (inactive) | 50.1 µM (inactive) | 25 µM (inactive) | 26.3 µM (inactive) | 19.9 µM (inactive) |  | 10 µM (inactive) | 23.2 µM (inactive) | 20.3 µM (inactive) | 16.2 µM (inactive) | 16.6 µM (inactive) |  | 30.6 | 16.6 µM (inactive) | 10.4 µM (inactive)
COc1ccc(C2(CN(C)C)COc3cc(OC)c(OC)cc3C2=O)cc1OC (configuration not stated) | > 100 µM (inactive) | 44.8 µM (inactive) | > 100 µM (inactive) | > 100 µM (inactive) | 63.5 µM (inactive) | 31.8 µM (inactive) | 74.8 µM (inactive) | 32.7 µM (inactive) | 24.1 µM (inactive) | 45.9 µM (inactive) | 92.9 µM (inactive) | 42.1 µM (inactive) | 86.7 µM (inactive) | 89.5 µM (inactive) | 44.3 µM (inactive) |  | 77.1 µM (inactive) | 34.6 µM (inactive)
Oc1cc(-c2ccccc2)nc2cc(Cl)ccc12 | 0.54 µM (active) | 5.06 µM (inactive) | 0.42 µM (active) | 1.31 µM (inactive) | 27.7 µM (inactive) | 0.157 µM (active) | 1.35 µM (inactive) | 1.1 µM (active) | 0.191 µM (active) | 0.509 µM (active) | 0.368 µM (active) | 0.283 µM (active) |  | 0.914 µM (active) | 0.675 µM (active) | 0.387 | 3.3 µM (inactive) | 9.14 µM (inactive)
[O-][S+]1Cc2ccccc2CSS1 (configuration not stated) | 29.2 µM (inactive) | 17.9 µM (inactive) | 13 µM (inactive) |  | 16.8 µM (inactive) | 3.85 µM (inactive) | 56.5 µM (inactive) | 14.3 µM (inactive) | 13.5 µM (inactive) | 14.3 µM (inactive) | 18.7 µM (inactive) | 16.3 µM (inactive) | 15.1 µM (inactive) | 12.8 µM (inactive) | 12.6 µM (inactive) | 13 | 14.4 µM (inactive) | 16.6 µM (inactive)
COC(=O)C1=CCS(=O)(=O)C1 | > 100 µM (inactive) | > 100 µM (inactive) | > 100 µM (inactive) | > 100 µM (inactive) | > 100 µM (inactive) | > 100 µM (inactive) | > 100 µM (inactive) | > 100 µM (inactive) | 5.16 µM (inactive) |  | > 100 µM (inactive) | > 100 µM (inactive) | > 100 µM (inactive) | > 100 µM (inactive) | > 100 µM (inactive) | > 100 | > 100 µM (inactive) | > 100 µM (inactive)
N#CC(/C(=N/NC(N)=S)C(=O)Nc1cccc(Cl)c1)c1ccccc1 (configuration not stated) | > 100 µM (inactive) | > 100 µM (inactive) | > 100 µM (inactive) | > 100 µM (inactive) | > 100 µM (inactive) |  | > 100 µM (inactive) | > 100 µM (inactive) | > 100 µM (inactive) | > 100 µM (inactive) | > 100 µM (inactive) | > 100 µM (inactive) | > 100 µM (inactive) | > 100 µM (inactive) | > 100 µM (inactive) | > 100 | > 100 µM (inactive) | > 100 µM (inactive)
CCCCCCCCc1cc2c(O)c(c1)Cc1cc(CCCCCCCC)cc(c1O)Cc1cc(CCCCCCCC)cc(c1O)Cc1cc(CCCCCCCC)cc(c1O)Cc1cc(CCCCCCCC)cc(c1O)Cc1cc(CCCCCCCC)cc(c1O)C2 | > 100 µM (inactive) | > 100 µM (inactive) | > 100 µM (inactive) | > 10 µM (inactive) | > 100 µM (inactive) |  | > 100 µM (inactive) | > 100 µM (inactive) |  | > 100 µM (inactive) | > 100 µM (inactive) | > 100 µM (inactive) |  | > 100 µM (inactive) | > 100 µM (inactive) | > 100 | > 100 µM (inactive) | 
CC(C)C1C(=O)NC(CO)Cc2c[nH]c3c(C(c4c[nH]c5ccccc45)C(O)CO)ccc(c23)N1C (configuration not stated) | > 100 µM (inactive) | > 100 µM (inactive) |  |  | 36.3 µM (inactive) | > 100 µM (inactive) | 14.5 µM (inactive) | > 100 µM (inactive) | 16.4 µM (inactive) |  | 37.2 µM (inactive) |  | > 100 µM (inactive) | 41.3 µM (inactive) | 49 µM (inactive) |  | > 100 µM (inactive) | > 100 µM (inactive)
O=C1CC[C@@H](NC(=O)Cc2ccccc2)C(=O)N1 | > 100 µM (inactive) | > 100 µM (inactive) | > 100 µM (inactive) | > 100 µM (inactive) | > 100 µM (inactive) |  | > 100 µM (inactive) | > 100 µM (inactive) | > 100 µM (inactive) | > 100 µM (inactive) | > 100 µM (inactive) | > 100 µM (inactive) | > 100 µM (inactive) | > 100 µM (inactive) | > 100 µM (inactive) |  | > 100 µM (inactive) | > 100 µM (inactive)
O=c1cc2n(c(=O)[nH]1)C1OC(C(O)C1O)[C@H]2CCO (some centres not stated) | > 100 µM (inactive) | > 100 µM (inactive) | > 100 µM (inactive) | > 100 µM (inactive) | > 100 µM (inactive) | > 100 µM (inactive) | > 100 µM (inactive) | > 100 µM (inactive) | > 100 µM (inactive) | > 100 µM (inactive) | > 100 µM (inactive) | > 100 µM (inactive) |  | > 100 µM (inactive) | > 100 µM (inactive) |  | > 100 µM (inactive) | > 100 µM (inactive)
CCOc1cn(C2OC(CO)C(O)C2O)c(=O)[nH]c1=O (configuration not stated) | > 100 µM (inactive) | > 100 µM (inactive) | > 100 µM (inactive) | > 100 µM (inactive) | > 100 µM (inactive) | > 100 µM (inactive) | > 100 µM (inactive) | > 100 µM (inactive) | > 100 µM (inactive) | 20.3 µM (inactive) | > 100 µM (inactive) | > 100 µM (inactive) | > 100 µM (inactive) | > 100 µM (inactive) | > 100 µM (inactive) | > 100 | > 100 µM (inactive) | 
